The source of these data is patent US11505558B1, “Antiviral heterocyclic compounds” (Enanta Pharmaceuticals, Inc., priority 2019, dated 2022).

Assay [1] relates to genotype A, "Long" strain RSV. Kind of assay: RSV-A assay (CPE, ATPlite readout in Hep-2 cells). The class given is cell-based. Conditions: human respiratory syncytial virus. The gist of the method: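 Hep-2 cells (8,000/well) received 2-fold serial compound dilutions in duplicate and RSV Long strain at MOI 0.1. After 5 days' incubation, cell health was read as ATP by ATPlite luminescence, with virus-only and uninfected controls defining max and minimum CPE; EC50 reported.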

For assay [2], the system named is recombinant HMPV CAN97-83 (MPV-GFP1). Put plainly: HMPV antiviral assay (MPV-GFP1 eGFP fluorescence in Vero E6 cells). The class given is cell-based. Conditions: human metapneumovirus, Vero C1008, 120 h, read-out: HMPV EC50. Put shortly:
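Vero E6 cells in serum-free OptiMEM with 0.5 μg/mL TPCK-trypsin infected with eGFP-expressing HMPV CAN97-83 (MPV-GFP1) at MOI 0.05. 8-point […] ½-step dilutions from 8 or 2 μM, 0.5% DMSO, 5 days at 32 °C. eGFP fluorescence normalized to infected untreated wells; EC50 from four-parameter logistic fit.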

[3] abbreviates: HEp-2, Hep-2 cells, genotype A "Long" strain RSV, MOI 0.1, read-out: Human RSV-A (“Long” strain) EC50.

For orientation: EC50 means the concentration at which the effect is half-maximal.

Where two headings read alike, the source gives them in different places. A value given as a limit tells only on which side of the number the result lay.

`COc1cc(C(=O)NC[C@](O)(c2cc3c(c(-c4ccc(F)cc4)n2)OC[C@]3(C)C(N)=O)C(F)(F)F)cc2cc(C3CC3)cnc12` [Example 519]: the values for the 50% effective concentration (EC50) in assay [1] (setting [3]) and in assay [2] were below 200 nM and below 500 nM, respectively.
In the same order, the values of `COc1cc(C(=O)NC[C@](O)(c2cc3c(c(-c4ccc(F)cc4)n2)OC[C@]3(C)C(N)=O)C(F)(F)F)cc2cc(Cl)cnc12` [Example 520] are below 200 nM and below 500 nM.
For `C[C@]1(C(N)=O)COc2c1cc([C@@](O)(CNC(=O)c1cc(OC3CC3)c3ncc(Cl)cc3c1)C(F)(F)F)nc2-c1ccc(F)cc1` [Example 521] the same measures were below 200 nM and below 500 nM.
In the same order, the values of `COc1cc(C(=O)NC[C@](O)(c2cc3c(c(-c4ccc(F)cc4)n2)OC[C@]3(C)C(N)=O)C2CC2)cc2cc(C3CC3)cnc12` [Example 522] are below 200 nM and below 500 nM.
Turning to `COc1cc(C(=O)NC[C@](O)(c2cc3c(c(-c4ccc(F)c(Cl)c4)n2)OC[C@]3(C)C(N)=O)C2CC2)cc2cc(C3CC3)cnc12` [Example 523], the figures for the concentration giving a half-maximal response (EC50) in assay [1] (setting [3]) and in assay [2] were below 200 nM and below 500 nM, respectively.
For `Cc1cnc2ccc(C(=O)NC[C@](O)(c3cc4c(c(-c5ccc(F)cc5)n3)OC[C@]4(C)C(N)=O)C(F)(F)F)cc2c1` [Example 524] the same measures were below 200 nM and below 500 nM.
For `C[C@]1(C(N)=O)COc2c1cc([C@@](O)(CNC(=O)c1ccc3ncc(Cl)cc3c1)C(F)(F)F)nc2-c1ccc(F)cc1` [Example 526] the same measures were below 200 nM and below 500 nM.
In the same order, the values of `C[C@]1(C(N)=O)COc2c1cc([C@@](O)(CNC(=O)c1ccc3ncc(F)cc3c1)C(F)(F)F)nc2-c1ccc(F)cc1` [Example 527] are below 200 nM and above 500 nM.
On to `COc1cc(C(=O)NC[C@](O)(c2cc3c(c(-c4ccc(F)cc4)n2)OC[C@]3(C)C(N)=O)C2CC2)cc2cc(Cl)cnc12` [Example 528], for which the EC50 in assay [1] (setting [3]) is below 200 nM; in assay [2], below 500 nM.
For `COc1cc(C(=O)NC[C@](O)(c2cc3c(c(-c4ccc(F)c(Cl)c4)n2)OC[C@]3(C)C(N)=O)C2CC2)cc2cc(Cl)cnc12` [Example 529] the same measures were below 200 nM and below 500 nM.
In the same order, the values of `C[C@]1(C(N)=O)COc2c1cc([C@@](O)(CNC(=O)c1cc(OC3CC3)c3ncc(Cl)cc3c1)C1CC1)nc2-c1ccc(F)cc1` [Example 530] are below 200 nM and below 500 nM.
In the same order, the values of `C[C@]1(C(N)=O)COc2c1cc([C@@](O)(CNC(=O)c1cc(OC3CC3)c3ncc(Cl)cc3c1)C1CC1)nc2-c1ccc(F)c(Cl)c1` [Example 531] are below 200 nM and below 500 nM.
On to `COc1cc(C(=O)NC[C@](O)(c2cc3c(c(-c4ccc(F)c(Cl)c4)n2)OC[C@]3(C)C(N)=O)C(F)(F)F)cc2cc(C3CC3)cnc12` [Example 532], for which the EC50 was below 200 nM in assay [1] (setting [3]) and below 500 nM in assay [2].
Take `COc1cc(C(=O)NC[C@](O)(c2cc3c(c(-c4ccc(F)cc4)n2)OC[C@]3(C)C(N)=O)C(F)(F)F)cc2cc(C)c(C)nc12` [Example 533]: the EC50 in assay [1] (setting [3]) was below 200 nM; in assay [2] it was below 500 nM.
For `COc1cc(C(=O)NC[C@](O)(c2cc3c(c(-c4ccc(F)c(Cl)c4)n2)OC[C@]3(C)C(N)=O)C(F)(F)F)cc2cc(C)c(C)nc12` [Example 534] the same measures were below 200 nM and below 500 nM.
`COc1cc(C(=O)NC[C@](O)(c2cc3c(c(-c4ccc(F)cc4)n2)OC[C@]3(C)C(N)=O)C2CC2)cc2cc(C(F)(F)F)cnc12` [Example 535]: the EC50 in assay [1] (setting [3]) is below 200 nM; in assay [2], below 500 nM.
Turning to `COc1cc(C(=O)NC[C@](O)(c2cc3c(c(-c4ccc(F)c(Cl)c4)n2)OC[C@]3(C)C(N)=O)C2CC2)cc2cc(C(F)(F)F)cnc12` [Example 536], the results for the half-maximal effective concentration (EC50) in assay [1] (setting [3]) and in assay [2] were below 200 nM and below 500 nM, respectively.
For `C[C@]1(C(N)=O)COc2c1cc([C@@](O)(CNC(=O)c1cc(OC(F)F)c3nc(N)sc3c1)C(F)(F)F)nc2-c1ccc(F)cc1` [Example 537] the same measures were below 200 nM and above 500 nM.
In the same order, the values of `CC(C)Oc1cc(C(=O)NC[C@](O)(c2cc3c(c(-c4ccc(F)cc4)n2)OC[C@]3(C)C(N)=O)C(F)(F)F)cc2sc(N)nc12` [Example 538] are below 200 nM and above 500 nM.
`C[C@]1(C(N)=O)COc2c1cc([C@@](O)(CNC(=O)c1cc(OC(F)F)c3nc(N)sc3c1)C1CC1)nc2-c1ccc(F)cc1` [Example 539]: the EC50 was below 200 nM in assay [1] (setting [3]) and below 500 nM in assay [2].
Turning to `C[C@]1(C(N)=O)COc2c1cc([C@@](O)(CNC(=O)c1cc(OC(F)F)c3nc(N)sc3c1)C1CC1)nc2-c1ccc(F)c(Cl)c1` [Example 540], the half-maximal effective concentration (EC50) in assay [1] (setting [3]) was below 200 nM; in assay [2] it was below 500 nM.
Take `C[C@]1(C(N)=O)COc2c1cc([C@@](O)(CNC(=O)c1cc(OC(F)(F)F)c3nc(N)sc3c1)C(F)(F)F)nc2-c1ccc(F)cc1` [Example 541]: the results for the 50% effective concentration (EC50) in assay [1] (setting [3]) and in assay [2] were below 200 nM and above 500 nM, respectively.
Regarding `C[C@]1(C(N)=O)COc2c1cc([C@@](O)(CNC(=O)c1cc(OC(F)(F)F)c3nc(N)sc3c1)C(F)(F)F)nc2-c1ccc(F)c(Cl)c1` [Example 542], the EC50 is below 200 nM in assay [1] (setting [3]) and below 500 nM in assay [2].
In the same order, the values of `C[C@]1(C(N)=O)COc2c1cc([C@@](O)(CNC(=O)c1cc(OC3CC3)c3nc(N)sc3c1)C(F)(F)F)nc2-c1ccc(F)cc1` [Example 543] are below 200 nM and below 500 nM.
In the same order, the values of `C[C@]1(C(N)=O)COc2c1cc([C@@](O)(CNC(=O)c1cc(OC3CC3)c3nc(N)sc3c1)C(F)(F)F)nc2-c1ccc(F)c(Cl)c1` [Example 544] are below 200 nM and below 500 nM.
For `Cc1cnc2c(Nc3cnccn3)cc(C(=O)NC[C@](O)(c3cc4c(c(-c5ccc(F)cc5)n3)OC[C@]4(C)C(N)=O)C(F)(F)F)cc2c1` [Example 547] the same measures were below 200 nM and above 500 nM.
With `Cc1cnc2c(Nc3cncnc3)cc(C(=O)NC[C@](O)(c3cc4c(c(-c5ccc(F)cc5)n3)OC[C@]4(C)C(N)=O)C(F)(F)F)cc2c1` [Example 548], the 50% effective concentration (EC50) in assay [1] (setting [3]) is below 200 nM; in assay [2] it was above 500 nM.
As to `Cc1cnc2c(OC(=O)NC3(C)COC3)cc(C(=O)NC[C@](O)(c3cc4c(c(-c5ccc(F)cc5)n3)OC[C@]4(C)C(N)=O)C(F)(F)F)cc2c1` [Example 549], the EC50 is below 200 nM in assay [1] (HEp-2, read-out: Human RSV-A (“Long” strain) EC50) and above 500 nM in assay [2].
Consider `Cc1cnc2c(NC(=O)NC3(C)CC3)cc(C(=O)NC[C@](O)(c3cc4c(c(-c5ccc(F)cc5)n3)OC[C@]4(C)C(N)=O)C(F)(F)F)cc2c1` [Example 550], for which the concentration for a half-maximal effect (EC50) in assay [1] (setting [3]) is below 200 nM; in assay [2], below 500 nM.
For `Cc1cnc2c(NC(=O)NCC(C)(C)O)cc(C(=O)NC[C@](O)(c3cc4c(c(-c5ccc(F)cc5)n3)OC[C@]4(C)C(N)=O)C(F)(F)F)cc2c1` [Example 551] the same measures were below 200 nM and above 500 nM.
Regarding `Cc1cnc2c(NC(=O)C3(C)CC3)cc(C(=O)NC[C@](O)(c3cc4c(c(-c5ccc(F)cc5)n3)OC[C@]4(C)C(N)=O)C(F)(F)F)cc2c1` [Example 552], the results for the 50% effective concentration (EC50) in assay [1] (setting [3]) and in assay [2] were below 200 nM and below 500 nM, respectively.
In the case of `Cc1cnc2c(NC(=O)C3(F)CC3)cc(C(=O)NC[C@](O)(c3cc4c(c(-c5ccc(F)cc5)n3)OC[C@]4(C)C(N)=O)C(F)(F)F)cc2c1` [Example 553], the EC50 is below 200 nM in assay [1] (setting [3]) and below 500 nM in assay [2].
For `COc1cc(C(=O)NC[C@](O)(c2cc3c(c(-c4ccc(F)cc4)n2)OC[C@]3(C)C(N)=O)C(F)(F)F)cc2cc(C(F)(F)F)cnc12` [Example 557] the same measures were below 200 nM and below 500 nM.
For `COc1cc(C(=O)NC[C@](O)(c2cc3c(c(-c4ccc(F)c(Cl)c4)n2)OC[C@]3(C)C(N)=O)C(F)(F)F)cc2cc(C(F)(F)F)cnc12` [Example 558] the same measures were below 200 nM and below 500 nM.
For `Cc1cnc2c(Nc3cccnn3)cc(C(=O)NC[C@](O)(c3cc4c(c(-c5ccc(F)cc5)n3)OC[C@]4(C)C(N)=O)C(F)(F)F)cc2c1` [Example 560] the same measures were below 200 nM and below 500 nM.
Turning to `Cc1cnc2c(NC(=O)c3ncco3)cc(C(=O)NC[C@](O)(c3cc4c(c(-c5ccc(F)cc5)n3)OC[C@]4(C)C(N)=O)C(F)(F)F)cc2c1` [Example 561], the 50% effective concentration (EC50) was below 200 nM in assay [1] (setting [3]) and below 500 nM in assay [2].
Turning to `COc1cc(C(=O)NC[C@](O)(c2cc3c(c(-c4ccc(F)cc4)n2)OC[C@]3(C)C(N)=O)C(F)(F)F)cc2sc(C)nc12` [Example 562], the values for the EC50 in assay [1] (setting [3]) and in assay [2] were below 200 nM and below 500 nM, respectively.
In the same order, the values of `C[C@]1(C(N)=O)COc2c1cc([C@@](O)(CNC(=O)c1ccc3[nH]ncc3c1)C(F)(F)F)nc2-c1ccc(F)cc1` [Example 588] are below 200 nM and above 500 nM.
For `COc1cccc2[nH]c(C(=O)NC[C@](O)(c3cc4c(c(-c5ccc(F)cc5)n3)OC[C@]4(C)C(N)=O)C(F)(F)F)cc12` [Example 595] the same measures were below 200 nM and below 500 nM.
In the same order, the values of `Cc1nc2cc(C(=O)NC[C@](O)(c3cc4c(c(-c5ccc(F)cc5)n3)OC[C@]4(C)C(N)=O)C(F)(F)F)ccc2[nH]1` [Example 600] are below 200 nM and above 500 nM.
Turning to `Cc1cnc2c(Nc3ncncn3)cc(C(=O)NC[C@](O)(c3cc4c(c(-c5ccc(F)cc5)n3)OC[C@]4(C)C(N)=O)C(F)(F)F)cc2c1` [Example 611], the EC50 was below 200 nM in assay [1] (setting [3]) and above 500 nM in assay [2].
